Measured values from patent publication US5942519A, “Prevention of precipitated acute urinary retention” (Merck & Co., Inc., priority 1998, dated 1999).

Columns and labels:
[1] = system: precipitated acute urinary retention; experiment: Four-year double-blind, placebo-controlled study in men with BPH: precipitated acute urinary retention; assay type: in vivo, human
Method: A total of 3040 men with moderate to severe symptoms of BPH and enlarged prostates were treated with either finasteride (17β-(N-tert-butylcarbamoyl)-3-oxo-4-aza-5α-androst-1-en-3-one,5 mg daily) or placebo in a four year double-blind, placebo-controlled study. BPH-related outcomes were assessed every 4 months. Patients on alpha blockers, antiandrogens, with a history of chronic prostatitis, recurrent urinary tract infections, or prior prostate or bladder surgery were excluded. A total of 3016 patients randomized to treatment had efficacy data and were included in the analysis of precipitated acute urinary retention; 1513 in the finasteride group and 1503 in the placebo group.
The endpoint committee, blinded to treatment group, reviewed all study-related documents related to episodes of acute urinary retention to classify the episodes as spontaneous or precipitated by other factors. All acute urinary retentions were classified by the endpoint committee as being "clearly" BPH related ("spontaneous") if there was no clear precipitating event, such as surgery within 72 hours, a precipitating medical event (e.g. stroke), or ingestion of a medication thought to precipitate retention (e.g., pseudoephedrine hydrochloride), etc. The other episodes of acute urinary retention were classified as not "clearly" BPH related ("precipitated") since there was likely to be more than one factor (including BPH) involved that precipitated the event.
Acute urinary retention was analyzed using the log-rank test for time-to-first-event and corroborated with Fisher's exact test on the cumulative incidence.

[2] = system: human type 2 enzyme (5α-reductase); conditions: cited from earlier work
[3] = system: BPH / spontaneous acute urinary retention; conditions: patients with BPH; cited from earlier work

CC(C)(C)NC(=O)[C@H]1CC[C@H]2[C@@H]3CC[C@H]4NC(=O)C=C[C@]4(C)[C@H]3CC[C@]12C [finasteride, 17β-(N-tert-butylcarbamoyl)-3-oxo-4-aza-5α-androst-1-en-3-one]
patients with an episode of precipitated acute urinary retention (percent) ([1]; 5 mg daily, 4-year study period, n=1513 finasteride, placebo 3.3%): 1.5% | patients with an episode of precipitated acute urinary retention (number) ([1]; 5 mg daily, 4-year study period, n=1513 finasteride, placebo 49 of 1503): 23 patients | reduction of the risk of having an episode of precipitated acute urinary retention ([1]; 5 mg daily, compared with placebo, over the 4-year study period): 52% | relative risk (hazard ratio) versus placebo, precipitated acute urinary retention ([1]; finasteride 5 mg daily versus placebo, 4-year study period): 0.48 | inhibition of the human type 2 enzyme (in words) [2]: potent inhibitor of the human type 2 enzyme | reducing spontaneous acute urinary retention (in words) [3]: significantly reducing spontaneous acute urinary retention | treating BPH (in words) [3]: effective in treating BPH
